# From patent publication US6359015B1, “Method for antagonizing inhibition effects of alcohol on cell adhesion” (The United States of America as represented by the …, priority 2000, dated 2002)
# How the values were obtained:
# [1] = system: BMP-7 treated NG108-15 neuroblastoma×glioma cells; test: Cell-cell adhesion (short-term aggregation) assay in BMP-7 treated NG108-15 cells; format: cell-based, rat and mouse; conditions: both cellular systems (NG108-15 + BMP-7 and L1-expressing NIH/3T3)
# Description: NIH/3T3 cells were cultured in Dulbecco's minimum Eagle medium (DMEM) (Life Technologies, Gaithersburg, Md.) supplemented with 10% normal calf serum (Intergen, Purchase, N.Y.) and 400 μg/ml G418 (Life Technologies). NG108-15 neuroblastoma×glioma cells (passages 21 to 30) were plated in serum-free, defined medium (Reference 16). At the start of the morphogenetic and cell adhesion assays, serum-free medium containing BMP-7 (Creative BioMolecules, Hopkinton, Ma.) (1-40 ng/ml, final) was added daily to the NG108-15 cells. Both cell lines were cultured at 37° C., in an atmosphere of 90% air and 10% CO2. Three NIH/3T3 subclones were utilized in these studies: 2B2-L1, 2A2-L1 and Vec-1A5. The 2B2-L1 and 2A2-L1 cell lines are subclones derived from a stable transfection of NIH/3T3 cells with the human L1 cDNA, and Vec-1A5 is a subclone from a transfection with the empty expression vector (Reference 12).
# Cells were cultured and cell adhesion assays were performed in the absence and presence of the alcohols listed below in Table 1. The concentrations of alcohols used in the adhesion assays were calculated to produce membrane concentrations equivalent to 50-100 mM ethanol. Membrane/buffer partition coefficients (Pm/b) were obtained or were calculated from published octanol/water partition coefficients (Reference 15). Molar volumes were obtained from published sources (References 15) or were calculated from molecular weights and densities at 20° C.
# Cell-cell adhesion was measured using a modified short-term aggregation assay of sub-confluent cells (Reference 12). Cells were detached by gentle agitation, mechanically dissociated to obtain a single-cell suspension, and diluted in PBS supplemented with 0.1 mg/ml DNase to 350,000 cells/ml for the NIH/3T3 cells, and 250,000 cells/ml for the NG108-15 cells. One ml of the cell suspension was added per well (4.5 cm^2) of a 12-well plate. After addition of the alcohols, the cells were gently mixed and mechanically shaken for 30 minutes at room temperature on an orbital shaker set at 60 to 80 rpm. Cells were viewed at a final magnification of 200×, and each well was scored for single and adherent cells in five or six microscopic fields of view. We counted approximately 100 cells per field of view and 600 cells per well. The percentage of adherent cells was calculated for each microscopic field of view and averaged. To calculate the magnitude of ethanol inhibition, we subtracted the values for cell adhesion with the Vec-1A5 cells from those of the 2B2-L1 or 2A2-L1 cell lines. Similarly, the values for cell adhesion in NG108-15 cells cultured in serum-free medium were subtracted from those of NG108-15 cells treated with BMP-7.
# We tested the effects of a series of alcohols on cell-cell adhesion in two well-characterized model systems. NG108-15 cells were incubated for 48 hours in a serum-free medium supplemented with 10-20 ng/ml BMP-7 to induce L1 and N-CAM gene expression (Reference 10). Parallel experiments were performed using two ethanol-sensitive NIH/3T3 cell lines transfected with human L1 (2B2-L1 and 2A2-L1) (Reference 12) and a NIH/3T3 cell line transfected with the empty expression vector (1A5-V).
# NG108-15 cells = test: BMP-7 morphogenesis (cell clusters) in NG108-15 cells; format: cell-based, rat and mouse; conditions: 50 mM ethanol, 3 days, 0.1-40 ng/ml BMP-7
# Description: NG108-15 cells were plated from suspensions of single cells at a density of 50,000 cells/well in poly-D-lysine-coated, 6-well plated containing serum-free medium in the absence or presence of BMP-7, as described (References 17-18). […] Control cultures were treated similarly. The media for all cells was replaced daily following the addition of ethanol. […] A cell cluster was defined as a group of three or more cells that adhered to each other along at least one quarter of their cell bodies (Reference 19). The percentage of cells in clusters was calculated by dividing the number of cells present in clusters by the total number of cells (150 to 200) in each field. Values obtained for each field of a treatment group were then averaged.
# Treatment with BMP-7 for 48 hours causes NG108-15 cells to grow in clusters of adherent cells (BMP-7 morphogenesis), rather than as predominantly single cells.
# The percentage of cells in clusters of three or more cells was scored from two separate fields viewed under 200×magnification.
# [2] = published or calculated from molecular weight and density at 20° C.; cited from earlier work
# [3] = system: Myeloma cells transfected with L1; conditions: References 14 and 21; cited from earlier work
# [4] = system: insect SF9 cells transfected with L1; conditions: References 14 and 21; cited from earlier work
smiles,measurement,setting,value
CCO [ethanol],Inhibition of cell-cell adhesion (in words),[1],maximally inhibited
same,Inhibition of BMP-7 morphogenesis (percentage of cell clusters),NG108-15 cells,inhibited significantly
same,Vm molar volume,[2],58 mL/mol
same,Sensitivity of L1-transfected myeloma cells to ethanol,[3],insensitive
same,Sensitivity of L1-transfected insect SF9 cells to ethanol,[4],insensitive
